“Also recorded” adds a separate entry of the source. Like-named read-outs stand apart in the source and are kept apart here.
Assays:
central nervous system = test: Central nervous system (CNS) safety study in rats; format: in vivo, rat
Experimental: This study was conducted at ClinTrials BioResearch (CTBR, Montreal, Quebec, Canada) as a GLP study.
Results: All animals were observed twice daily for signs of ill health or reaction to treatment, except on day of arrival and necropsy. A Functional Observation Battery
(FOB) assessment, along with grip strength, hind limb splay and body temperature measurements were performed for all animals once pre-dose and at approximately 15 minutes, 1 hour, 4 hours, 8 hours and 24 hours post-dose. After the last observation, all animals were euthanized without further examination.

[1] = system: human U251 (glioblastoma) CNS tumor cells; conditions: for median day of death and median survival time: iv, 240 h
Text: Tumor Model: Each animal was implanted with one million U251 human CNS tumor cells from an in vitro cell line by ic injection with a 25 gauge needle. The day of tumor implantation (May 24, 2006) was designated as day 0. A sufficient number of mice were implanted so that animals with body weights in a range as narrow as possible were selected for the trial on the day of treatment initiation (day 1 after tumor implantation). Animals were randomly assigned to the treatment groups and individually identified by earmark codes.
A portion of this solution was then diluted with the complete vehicle to achieve the lower dosing concentration of 1.2 mg/mL. […] Temozolomide (Temodar, Schering Corporation) was prepared on each day of injection in Klucel+tween 80 at a concentration of 4 mg/mL. Temozolomide was administered within 5 minutes of formulation on the basis of exact body weight using a volume of 0.2 mL/10 g of body weight.
Data Collection: Animal health surveillance was conducted and mortality data were collected daily. The animals were weighed twice weekly starting with the first day of treatment.
Study Duration: The study was terminated 100 days after tumor implantation. Any animal found moribund or whose body weight dropped below 14 g was euthanized prior to study termination.
Parameters Evaluated: Number of 100-day survivors, median day of death, and the increase in lifespan based on median day of death and expressed as a percentage (% ILS), median survival time and the % ILS based on median survival time.
Administration of the Ringer's solution was initiated when animal body weights dropped by greater than 10% and continued until the animal recovered, died, or was euthanized.

[2] = Phase 1 Study S-(1)-02, i.v. every 21 days, safety and pharmacokinetics; format: in vivo, patients; conditions: for AUC0-24 / Cl / Vss / t1/2: Study S-(1)-02 (15:85 Cremophor EL-P/ethanol), i.v., first dose; for half-life: human, plasma, intravenous
Experimental: treatment cycles are repeated every 28 days in patients who remain eligible for continued treatment. Study S-(1)-O1 is currently being conducted in the United States. […] Study S-(I)-02 is currently being conducted in the United States and in Israel.
Plasma pharmacokinetics of S-(1) were assessed following the first dose of S-(1) in both studies. Plasma samples were analyzed for S-(1) using a validated LC/MS-MS method.
Treatment cohorts were expanded to 6 pts in the face of dose-limiting toxicity (DLT); pts could remain on study until the development of progressive disease or an intolerable adverse event. DLT was defined as Gr 4 heme toxicity lasting 7 days; febrile neutropenia, Gr 3 thrombocytopenia with bleeding, Gr 3 elevation of transaminases lasting 7 days or any other Gr ¾ toxicity other than nausea or vomiting.

[3] = S-(1) pharmacokinetics in mouse, plasma and brain levels after single IV bolus; format: in vivo, mice; conditions: single IV 20 mg/kg; for AUC (0-t) / AUC (0-∞) / Cmax / MRT (expo): male CD-1 mice
Experimental: S-(I) was formulated in 7% Ethanol: 3% Cremophor EL: 90% D5W (5% Dextrose in water). The formulated drug was administered as a single IV bolus via tail vein injection. The details are set out below:
Sample Collection timing: Terminal blood (plasma) and brain specimens were collected at 9 times post-dose, with 4 mice per sample time. Sample collection times:
Blood collection: A terminal blood sample was collected from each mouse via cardiac puncture. The whole blood was collected on wet ice, spun down immediately (at 4° C.), and plasma stored frozen at −20° C. until analysis. The anticoagulant used was K2EDTA. Brain Sample Collection: Whole brains were removed by dissection. Brains were collected on wet ice, weighed, and stored at −20° C.

[4] = S-(1) Injection mouse PK parameters, IV and oral; format: in vivo
[5] = S-(1) rat oral bioavailability, formulations evaluated in vivo
Experimental: IV formulation (Cremophor El P/alcohol) and a suspension of the compound of Formula S-(1) in aqueous medium: Several studies were performed to investigate specific parameters.
Using the 50:50 CremophoπEthanol formulation as a case study (AUC last: 2540; norm AUCinf: 477), F was calculated from the ratio of the normalized PO and IV AUCs: F(%)=norm. AUC PO/norm. AUC IV.

Question: What does the source list for `C=C[C@H]1O[C@H]2CC3OC[C@@]3(OC(C)=O)[C@H]3[C@H](OC(=O)c4ccccc4)[C@]4(C(C)(C)O)C[C@H](OC(=O)[C@H](O)[C@H](CC(C)C)NC(=O)OC(C)(C)C)C(C)=C4[C@H](OC(C)=O)[C@H](O1)[C@]23C` (stereo partly drawn) [S-(1)]?
Answer: biological effect on central nervous system (functional observational battery, grip strength, hind limb splay, body temperature) (central nervous system; single intravenous 6.25, 12.5 or 25 mg/kg, male Sprague Dawley rats, 15 minutes, 1, 4, 8 and 24 hours post-dose): no biological effects; deaths or treatment-related clinical signs (central nervous system; single intravenous 6.25, 12.5 or 25 mg/kg, male rats): no deaths or treatment-related clinical signs; no adverse effect level (central nervous system; single intravenous dose, male Sprague Dawley rats): 25 mg/kg; median day of death and median survival time ([1]; 12 mg/kg): 14.5 days; median day of death and median survival time ([1]; 20 mg/kg): 16 days; effect against the U251 human CNS tumor cells (in words) ([1]; monotherapy or combination treatment, intracranial xenograft): moderate effect; AUC0-24 ([2]; 56 mg/m^2, plasma): 2530 ± 847 ng·h/mL; Cl ([2]; 56 mg/m^2, plasma): 18.9 ± 9.53 L/hr/m^2; Vss ([2]; 56 mg/m^2, plasma): 232 ± 93.6 L/m^2; t1/2 ([2]; 56 mg/m^2, plasma): 8.96 ± 7.09 h; AUC0-24 ([2]; 84 mg/m^2, plasma): 3710 ng·h/mL; Cl ([2]; 84 mg/m^2, plasma): 15.4 L/hr/m^2; Vss ([2]; 84 mg/m^2, plasma): 300 L/m^2; AUC0-24 ([2]; 126 mg/m^2, plasma): 6110 ± 3030 ng·h/mL; Cl ([2]; 126 mg/m^2, plasma): 22.1 ± 11.2 L/hr/m^2; Vss ([2]; 126 mg/m^2, plasma): 166 ± 105 L/m^2; t1/2 ([2]; 126 mg/m^2, plasma): 6.27 ± 3.64 h; AUC0-24 ([2]; 185 mg/m^2, plasma): 7260 ± 2620 ng·h/mL; Cl ([2]; 185 mg/m^2, plasma): 24.7 ± 12.2 L/hr/m^2; Vss ([2]; 185 mg/m^2, plasma): 215 ± 116 L/m^2; t1/2 ([2]; 185 mg/m^2, plasma): 3.43 ± 7.31 h; dose limiting toxicity ([2]; Study S-(1)-02, i.v. every 21 days, 185 mg/m^2 (2 patients)): Grade 3 sensory neuropathy; also recorded: Gr 3 peripheral sensory neuropathy; dose that can be safely administered ([2]; every 21 days in heavily pre-treated patients): 160 mg/m^2; patients who experienced Gr 4 neutropenia ([2]; every 21 days, 14 patients): 1 pt; drug related adverse events ([2]; every 21 days, 56-185 mg/m^2, 14 patients): mucositis, vomiting, diarrhea, neutropenia, thrombocytopenia, myalgias and peripheral neuropathy; dose limiting toxicity ([2]; every 21 days, dose of 160 mg/m^2): no DLT was observed; dose dependence of AUC (in words) ([2]; every-21-days study): generally dose linear; clearance ([2]; every-21-days study summary, dose of 126 mg/m^2): 24.7±12.2 L/hr/m^2; tumor response ([2]; every-21-days study, patients with advanced cancer): 1 pt with pancreatic cancer had a confirmed response; half-life ([2]; 126 mg/m2, every-21-days study summary, dose of 126 mg/m^2, read-out: t1/2 (converted)): 10.6 h; half-life ([2]; Study S-(1)-02, after first dose, read-out: Plasma t1/2, range over dose groups): 3.43 to 8.96 h; AUC (0-t) ([3]; Brain): 64984.9 ng·h/mL; AUC (0-∞) ([3]; Brain): 88742.9 ng·h/mL; Cmax ([3]; Brain): 3726.6 ng/mL; MRT (expo) ([3]; Brain): 42.5 h; AUC (0-t) ([3]; Plasma): 16870.2 ng·h/mL; AUC (0-∞) ([3]; Plasma): 16951.2 ng·h/mL; Cmax ([3]; Plasma): 1550.2 ng/mL; MRT (expo) ([3]; Plasma): 17.6 h; passage of the blood-brain barrier (in words) ([3]; mouse model): not impeded by the blood-brain barrier; AUCinf ([4]; IV 10/mg/kg): 7.738 µM·h; AUClast ([4]; IV 10/mg/kg): 6.298 µM·h; CL ([4]; IV 10/mg/kg): 24.8 mL/min/kg; Vdss ([4]; IV 10/mg/kg): 13.35 L/kg; t½ ([4]; IV 10/mg/kg): 6.1 h; AUCinf ([4]; Oral 10 mg/kg): 3.609 µM·h; AUClast ([4]; Oral 10 mg/kg): 3.434 µM·h; Cmax ([4]; Oral 10 mg/kg): 460 nM; t½ ([4]; Oral 10 mg/kg): 5.1 h; F ([4]; Oral 10 mg/kg vs IV): 47%; Tmax ([4]; in vivo, Oral 10 mg/kg): 6 h; difference in F with different formulations (in words) [5]: no significant difference in F with different formulations; bioavailability ([5]; in vivo, using a cremophor-free formulation as reference, read-out: effective F (real bioavailability)): 60 to 70%
